According to patent publication US5871779A, “Treatment of arthropathies with vanadate compounds or analogues thereof” (Mount Sinai Hospital Corporation, priority 1996, dated 1999):
“And” between values parts separate entries of the source, which are not always exact repeats. Equal entries are not always repeated.

Legend:
tumor growth = assay: different concentrations of BMOV on tumor growth (Example 23); type: in vivo, mice; set-up: Tumour weight / Tumour weight, Means: unit not given here; conditions: for Tumour weight: individual mice
Protocol: In this experiment we determined the optimum concentration for inhibition of tumor growth as follows.
Forty mice were subcutaneously injected with tumor cells (10×10^6/ml)on day 1. On day 5, the mice were divided into five groups as follows: Group 1; control, PBS injected; Group 2: 0.1% BMOV injected; Group 3: 0.25% BMOV injected; Group 4: 0.5% BMOV injected and; Group 5: 0.75% BMOV injected. All the mice were injected (I.P.) with 2 mg NAC before injection of BMOV. […] The effective concentrations of BMOV are from 0.1% to 0.75%.

articular cartilage = assay: electron microscopy of articular cartilage of arthritic rats; type: in vivo, rat
Protocol: The synovium of rats from each group was examined by electron microscopy. Rats in each group were selected on Day 5 and Day 18 post arthritis onset to study joint morphology. Scanning and Transmission electron microscopy was performed on selected glutaraldehyde fixed joints. One ankle joint of each arthritic control and BMOV-treated rat was removed, critical point dried, and gold sputter-coated for scanning electron microscopy on Day 18 post arthritis onset to examine the trochlear surfaces. Conventional transmission electron microscopy was also performed on the articular cartilage of the trochlear surfaces of naive, arthritic control, and BMOV-treated animals using a Jeol 1200EX.

MCF7 (ADR) = assay: MTT cytotoxicity assay, MCF7 (ADR); type: cell-based, human; conditions: MCF7 (ADR), 72 hours; read-out: IC50 Value
Protocol: The relative cytotoxicity of various compounds on tumor cell lines was investigated as follows. Cytotoxicity was measured by the MTT microculture tetrazolium colorimetric assay for all cell lines. The relative cytotoxicity of Na3 VO4 and VOSO4 was investigated using the following tumor cell lines: P388(WT) murine leukemia, P388 (ADR) murine leukemia, Lewis murine lung, MCF7 (WT) human breast, […] human lung, K562 human erythroleukemia, A431 human epidermal, LS180 human colon and SK-OV-3 human ovarian. The relative cytotoxicity of doxorubicin, Na3 VO4 and VOSO4 was investigated using the following tumor cell lines: P388(WT) murine leukemia, P388 (ADR) murine leukemia, MCF7(WT) human breast and MCF7 (ADR) human breast. The relative cytotoxicity of BMOV, BEOV and naglivan was investigated using the following tumor cell lines: P388(WT) murine leukemia, P388 (ADR) murine leukemia, Lewis murine lung, H460 human lung, K562 human erythroleukemia, and SK-OV-3 human ovarian.
The cells were plated (number of cells/well was different from cell line to cell depending on the dividing rate) in a 96-well microculture plate 24 hours prior to the delivery of the vanadium compounds. Serial concentrations of solutions of the test compounds (0.05-100 μM) were delivered to the corresponding wells. A blank column (without cells) and a control column (with cells without vanadium) were left. The cells were incubated for 72 hours continuously. An MTT solution was added to each well after this incubation period and the cells were incubated for 4 more hours for the completion of the dyeing process. The medium was removed find DMSO was added to each well. The absorbance of each well was read with a Titertek Multiskan (310C) spectrophotometer at 570 nm. The percentage of the absorbance of each vanadium concentration relative to the control calculated and the value of the 50% growth inhibition concentration (IC50) was obtained from the % control versus concentration plot. Each assay was repeated three times and the reported IC50 values were the mean of these three runs.

HTB14 cells = assay: viability of HTB14 cells; type: cell-based, human; conditions: 0-50 μM, 48 hours
Protocol: Fos and jun activity are also required for cellular proliferation in many tumor cell lines. Accordingly, the effect of orthovanadate on adherent cells and cell suspensions were examined. MDAY-D2 (a mouse lymphoid cell line grown in suspension) and HTB14 cells (an adherent human primary astrocytoma cell line) were incubated in media containing 0-50 μM orthovanadate for 48 hours. The cells were harvested and the number of viable cells determined.

MDAY-D2 tumor = MDAY-D2 tumor growth in vivo, orthovanadate s.c. (Example 6A); set-up: species or system mice; conditions: 10 mg/ml, 50 μl daily s.c., day 14
Text: In order to examine the ability of vanadyl compounds to reduce tumor formation, growth and metastases, a specific animal model which allows investigation of all of these processes in the same animal was chosen. This model involves the injection of a metastatic haematopoietic cell line, MDAY-D2, into mice subcutaneously. These cells form a tumor at the site of injection and its size can be easily determined. In addition, these cells metastasize to the liver and metastases can be detected histologically after day 17 to 19. This model provides a very sensitive and reproducible approach to investigate the effect of vanadyl compounds on tumor growth and metastases.
Using the animal model described above, the effect of subcutaneous administration of orthovanadate on tumor growth was investigated. A total of 15 mice were injected subcutaneously with 1×10^5 MDAY-D2 cells on Day 1. On Day 5, small tumors could be observed at the site of injection. Five mice were injected daily with 50 μl of water alone and 10 mice were injected daily with water containing 10 mg/ml orthovanadate. On day 14, the mice were sacrificed. The tumors were removed from all the animals, photographed, and weighed. FIG. 11 compares sizes of tumors from two untreated and two orthovanadate treated mice. […] In animals treated with water alone, four mice had tumors weighing between 1.18 and 1.68 gms.

SMILES	Tumour weight (tumor growth; 0.1% BMOV + 2 mg NAC i.p.)	Tumour weight, Means (tumor growth; 0.1% BMOV + NAC)	Tumour weight (tumor growth; 0.25% BMOV + 2 mg NAC i.p.)	Tumour weight, Means (tumor growth; 0.25% BMOV + NAC)	Tumour weight (tumor growth; 0.5% BMOV + 2 mg NAC i.p.)	Tumour weight, Means (tumor growth; 0.5% BMOV + NAC)	Tumour weight (tumor growth; 0.75% BMOV + 2 mg NAC i.p.)	Tumour weight, Means (tumor growth; 0.75% BMOV + NAC)	death of animal (tumor growth; 0.75% BMOV + NAC, mouse 8)	trochlear surface by scanning electron micrograph (articular cartilage; Day 18)	articular cartilage by transmission electron micrograph (articular cartilage; rat, in vivo)	cartilage damage of joints (articular cartilage; scanning and transmission electron micrographs)	IC50 (MCF7 (ADR))	toxicity to HTB14 cells (HTB14 cells)	detectable tumors (MDAY-D2 tumor)	tumor size (MDAY-D2 tumor; five mice)
Cc1occc(=O)c1[O-].Cc1occc(=O)c1[O-].[O]=[V+2] [BMOV, bis(methylmaltolato) oxovanadium (IV)]	0.44 and 0.40 and 0.48 and 0.62 and 0.54 and 0.84 and 0.18 and 0.87	0.55	0.14 and 0.23 and 0.73 and 0.04 and 0.21 and 0	0.18	0.40 and 0.20 and 0.07 and 0.17 and 0.06 and 0	0.22	0.07 and 0.16 and 0.08 and 0.21 and 0.13 and 0	0.09	died	normal trochlear surface	indistinguishable from the naive animal	little cartilage damage and intact cartilage				
[Na+].[Na+].[Na+].[O]=[V]([O-])([O-])[O-] [orthovanadate, sodium orthovanadate]													30.7 µM	toxic	2 mice did not have detectable tumors	less than 0.16 gms
